This note sets out measurements from article PMC9585581, “Developing Photoaffinity Probes for Dopamine Receptor D2 to Determine Targets of Parkinson’s Disease Drugs” (ACS Chemical Neuroscience, 2022).

In the assay the target is DRD2 (Homo sapiens, UniProt P14416). As to the kind of experiment: Western blot analysis of DRD2-probe binding with competition by parent pharmacophore. As to conditions: probe 100 nm; for competition with parent pharmacophore (Western blot): competitor (ropinirole or pramipexole) 50 μM; for photo-cross-linking / colocalization with DRD2 band (Western blot): membrane fraction enriched via Strep Tag II. Also on record: expressed in transfected cells. The text has this:
To observe the photo-cross-linking of DRD2 at the protein level, we analyzed the colocalization of DRD2 by clicking a fluorophore on the probe and performing Western blots. We further observed the competition with the parent pharmacophore of each probe and the ability of a negative control benzophenone (16) to cross-link to DRD2. Our DRD2-expressing cells or unmodified 293T cells (control group) were suspended in media, treated with the probe at a 100 nm concentration, and photo-cross-linked. The cells were then lysed, and the membrane fraction was separated and enriched for DRD2 by pulldown of the Strep Tag II fusion using magnetic beads. After “clicking” a fluorescent tag to the probe, the membrane fraction was run on an SDS-PAGE gel, transferred to a nitrocellulose membrane, and treated with antibodies against DRD2 and Strep Tag II. […] We also observed many nonspecific binding bands for the probe, which is consistent with our other studies, as well as the observations of the field when it relates to photo-cross-linking groups. […] With this confirmation, we proceeded to proteomic analysis of probe interactions.
Figure 6 Photo-cross-linking of probes 5 and 7 to DRD2 visualized with Western blot. Lanes 1–5 correspond to samples with probe 5 at 100 nm, lanes 6–10 correspond to samples treated with probe 7 at 100 nm, and lanes 11–14 correspond to samples treated with negative control probe 16. Lanes: 1, 6, and 11 are the anti-DRD2 antibody channel, lanes 2, 3, 7, 8, and 12 are fluorescence of the Alexa Fluor 555 clicked to the probes 5, 7, or 16, lanes 4, 9, and 13 are the anti-Strep Tag antibody channel, and lanes 5, 10, and 14 are the overlaid channels for the respective probes.
A stable HEK293T-derived cell line-expressing DRD2-Strep Tag II fusion was maintained in DMEM supplemented with 10% FBS, 100 U/mL penicillin, and 100 μg/mL streptomycin in a humidified atmosphere at 37 °C in 5% CO2. Cells were plated at a density of 4 × 10^4 cells/cm^2 in T300 tissue culture flasks (CellTreat) and allowed to grow to an 80% confluency. At confluency, media was removed and cells were washed once with cold HBSS, followed by incubation for 15 min in cold HBSS with 0.53 mM EDTA. Following incubation, cells were scraped off of the bottom of the flask and the cell suspension was transferred to a 15 mL conical tube and then pelleted at 500g for 5 min. The supernatant was removed, and the cell pellet was resuspended in HBSS followed by centrifugation at 500g for 5 min. […] The supernatant of the cell pellet was removed, and the cells were resuspended in probe solution and incubated at room temperature for 2 min followed by centrifugation at 500g for 5 min. The cell pellet was resuspended in either HBSS or 50 μM competitor solution in HBSS and irradiated with a 365 nm UV lamp (8 W, 2 cm distance) for 30 min at room temperature. The cells were then pelleted at 500g for 5 min, and the supernatant was removed. Membrane fractionation was performed following the MEM-PER Membrane Protein Extraction Kit (Thermo). The solubilized membrane fraction was incubated with hydrophilic streptavidin magnetic beads (NEB) for 1 h at room temperature. The flow-through was removed, and the beads were washed twice with PBS. […]
On the technique in general: A western blot detects proteins with antibodies after separation by electrophoresis.

Chain of DRD2 (P14416 whole entry): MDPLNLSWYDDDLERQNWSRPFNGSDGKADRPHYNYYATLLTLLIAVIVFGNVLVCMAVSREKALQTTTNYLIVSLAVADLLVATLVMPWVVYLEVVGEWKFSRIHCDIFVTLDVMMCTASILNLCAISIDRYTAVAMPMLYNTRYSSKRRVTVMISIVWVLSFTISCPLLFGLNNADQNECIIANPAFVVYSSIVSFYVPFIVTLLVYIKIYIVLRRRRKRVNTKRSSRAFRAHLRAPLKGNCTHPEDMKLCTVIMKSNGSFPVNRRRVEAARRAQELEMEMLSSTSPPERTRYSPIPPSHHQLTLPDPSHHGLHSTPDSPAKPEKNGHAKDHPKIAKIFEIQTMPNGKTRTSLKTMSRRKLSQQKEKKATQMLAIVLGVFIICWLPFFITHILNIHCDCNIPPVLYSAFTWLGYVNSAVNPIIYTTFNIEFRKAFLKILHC

In the case of `C#CCOc1ccc(C(=O)c2ccc(CN[C@H]3CCc4nc(N)sc4C3)cc2)cc1` [Compound 7, (S)-(4-(((2-Amino-4,5,6,7-tetrahydrobenzo[d]thiazol-6-yl)amino)methyl)phenyl)(4-(prop-2-yn-1-yloxy)phenyl)methanone], the “competition with parent pharmacophore (Western blot)” value is “greatly diminish the binding” and the “photo-cross-linking / colocalization with DRD2 band (Western blot)” value is reported as “binding to the DRD2 receptor”.
The matching figures for `C#CCOc1ccc(C(=O)c2ccc(CNCCc3cccc4c3CC(=O)N4)cc2)cc1` [Compound 5, 4-(2-((4-(4-(Prop-2-yn-1-yloxy)benzoyl)benzyl)amino)ethyl)indolin-2-one]: “greatly diminish the binding” and “binding to the DRD2 receptor”.
